Data from patent publication US11771709B2, “ALK protein degradation agent and anti-tumor application thereof” (ShanghaiTech University, priority 2017, dated 2023).

Assays:
[1] = system: NCI-H3122 (EML4-ALK, V1) cells; assay: Growth inhibition IC50 in lung cancer H3122 cells (Cell Titer Blue / Cell Titer Glo); conditions: for IC50: Homo sapiens, NCI-H3122, H3122 cells
[2] = system: SR (NPM-ALK) cells; assay: Growth inhibition IC50 in ALCL SR cells (CCK8/WST, 72 hours); format: cell-based; conditions: SR cells
[3] = biological target: T1, ALK protein in H3122 (EML4-ALK) cells (Homo sapiens, UniProt Q9UM73); assay: Western blot of ALK protein level (degradation, DC50), ALK phosphorylation and downstream signaling in H3122 cells; format: cell-based; conditions: for DC50: ALK protein degradation in H3122 cells
T1 construct: EML4 (Echinoderm microtubule-associated protein-like 4, Q9HC35) fusion partner, variant 1; host or cells: NCI-H3122 lung adenocarcinoma cells; the other entry of the earlier key: EML4 (Q9HC35, Echinoderm microtubule-associated protein-like 4)
T1 sequence (Q9UM73 with tags, fused parts or gaps): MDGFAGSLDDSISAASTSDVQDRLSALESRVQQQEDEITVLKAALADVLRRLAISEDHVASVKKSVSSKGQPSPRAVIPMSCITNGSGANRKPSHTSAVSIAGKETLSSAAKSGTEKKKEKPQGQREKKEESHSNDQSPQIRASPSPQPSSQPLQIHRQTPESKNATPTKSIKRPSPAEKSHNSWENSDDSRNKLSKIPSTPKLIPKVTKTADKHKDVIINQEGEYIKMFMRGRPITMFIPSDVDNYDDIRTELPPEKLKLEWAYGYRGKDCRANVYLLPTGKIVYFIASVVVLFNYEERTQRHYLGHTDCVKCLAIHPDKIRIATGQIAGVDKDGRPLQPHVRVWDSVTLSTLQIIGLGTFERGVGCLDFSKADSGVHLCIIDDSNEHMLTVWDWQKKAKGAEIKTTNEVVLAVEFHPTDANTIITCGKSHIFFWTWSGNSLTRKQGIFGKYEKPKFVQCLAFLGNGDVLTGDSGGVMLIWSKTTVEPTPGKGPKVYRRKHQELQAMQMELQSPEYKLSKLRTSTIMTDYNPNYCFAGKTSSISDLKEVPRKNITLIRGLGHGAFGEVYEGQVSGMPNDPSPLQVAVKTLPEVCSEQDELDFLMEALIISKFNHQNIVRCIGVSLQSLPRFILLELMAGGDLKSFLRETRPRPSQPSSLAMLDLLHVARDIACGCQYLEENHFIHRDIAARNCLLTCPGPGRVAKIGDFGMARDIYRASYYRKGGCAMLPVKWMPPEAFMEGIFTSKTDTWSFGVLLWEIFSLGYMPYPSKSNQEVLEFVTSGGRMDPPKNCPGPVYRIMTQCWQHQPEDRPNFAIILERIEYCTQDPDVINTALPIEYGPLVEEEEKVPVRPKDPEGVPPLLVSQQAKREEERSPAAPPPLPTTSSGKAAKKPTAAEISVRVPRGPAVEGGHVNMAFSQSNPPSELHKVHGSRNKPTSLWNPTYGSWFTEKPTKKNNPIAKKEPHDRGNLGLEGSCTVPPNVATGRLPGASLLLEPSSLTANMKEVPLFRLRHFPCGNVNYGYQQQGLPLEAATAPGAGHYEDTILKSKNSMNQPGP

| IC50 ([1]; CTB (Cell Titer Blue)) | DC50 [3] | SMILES | other results |
| --- | --- | --- | --- |
| 428 nM |  | Cc1cc(Nc2ncc(Cl)c(Nc3ccccc3S(=O)(=O)C(C)C)n2)c(OC(C)C)cc1C1CCN(C(=O)CCCCCCC(=O)N[C@H](C(=O)N2C[C@H](O)C[C@H]2C(=O)NCc2ccc(-c3scnc3C)cc2)C(C)(C)C)CC1 [SIAIS074008, (2S,4R)-1-((S)-2-(8-(4-(4-((5-chloro-4-((2-(isopropylsulfonyl)phenyl)amino)pyrimidin-2-yl)amino)-5-isopropoxy-2-methylphenyl)piperidin-1-yl)-8-oxooctanamido)-3,3-dimethylbutanoyl)-4-hydroxy-N-(4-(4-methylthiazol-5-yl)benzyl)pyrrolidine-2-carboxamide] | growth inhibition effect ([1]; H3122 cells): IC50 at the nano mole range; growth inhibition effect [2]: IC50 at the nano mole range |
| 209 nM | 100 to 500 nM | Cc1cc(Nc2ncc(Cl)c(Nc3ccccc3S(=O)(=O)C(C)C)n2)c(OC(C)C)cc1C1CCN(C(=O)CCCC(=O)N[C@H](C(=O)N2C[C@H](O)C[C@H]2C(=O)NCc2ccc(-c3scnc3C)cc2)C(C)(C)C)CC1 [SIAIS074018, (2S,4R)-1-((S)-2-(5-(4-(4-((5-chloro-4-((2-(isopropylsulfonyl)phenyl)amino)pyrimidin-2-yl)amino)-5-isopropoxy-2-methylphenyl)piperidin-1-yl)-5-oxopentanamido)-3,3-dimethylbutanoyl)-4-hydroxy-N-(4-(4-methylthiazol-5-yl)benzyl)pyrrolidine-2-carboxamide] |  |
| 125 nM | 50 to 100 nM | Cc1cc(Nc2ncc(Cl)c(Nc3ccccc3S(=O)(=O)C(C)C)n2)c(OC(C)C)cc1C1CCN(C(=O)CCCCC(=O)N[C@H](C(=O)N2C[C@H](O)C[C@H]2C(=O)NCc2ccc(-c3scnc3C)cc2)C(C)(C)C)CC1 [SIAIS074021, (2S,4R)-1-((S)-2-(6-(4-(4-((5-chloro-4-((2-(isopropylsulfonyl)phenyl)amino)pyrimidin-2-yl)amino)-5-isopropoxy-2-methylphenyl)piperidin-1-yl)-6-oxohexanamido)-3,3-dimethylbutanoyl)-4-hydroxy-N-(4-(4-methylthiazol-5-yl)benzyl)pyrrolidine-2-carboxamide] |  |
| 269 nM | 20 to 100 nM | Cc1cc(Nc2ncc(Cl)c(Nc3ccccc3S(=O)(=O)C(C)C)n2)c(OC(C)C)cc1C1CCN(C(=O)CCCCCC(=O)N[C@H](C(=O)N2C[C@H](O)C[C@H]2C(=O)NCc2ccc(-c3scnc3C)cc2)C(C)(C)C)CC1 [SIAIS074022, (2S,4R)-1-((S)-2-(7-(4-(4-((5-chloro-4-((2-(isopropylsulfonyl)phenyl)amino)pyrimidin-2-yl)amino)-5-isopropoxy-2-methylphenyl)piperidin-1-yl)-7-oxoheptanamido)-3,3-dimethylbutanoyl)-4-hydroxy-N-(4-(4-methylthiazol-5-yl)benzyl)pyrrolidine-2-carboxamide] |  |
| 721 nM | 10 to 50 nM | Cc1cc(Nc2ncc(Cl)c(Nc3ccccc3S(=O)(=O)C(C)C)n2)c(OC(C)C)cc1C1CCN(C(=O)CCCCCCCC(=O)N[C@H](C(=O)N2C[C@H](O)C[C@H]2C(=O)NCc2ccc(-c3scnc3C)cc2)C(C)(C)C)CC1 [SIAIS074024, (2S,4R)-1-((S)-2-(9-(4-(4-((5-chloro-4-((2-(isopropylsulfonyl)phenyl)amino)pyrimidin-2-yl)amino)-5-isopropoxy-2-methylphenyl)piperidin-1-yl)-9-oxononanamido)-3,3-dimethylbutanoyl)-4-hydroxy-N-(4-(4-methylthiazol-5-yl)benzyl)pyrrolidine-2-carboxamide] | concentration at which ALK protein level was reduced ([3]; H3122 cells, western blot): 50 nM |
| 1240 nM | 100 to 500 nM | Cc1cc(Nc2ncc(Cl)c(Nc3ccccc3S(=O)(=O)C(C)C)n2)c(OC(C)C)cc1C1CCN(C(=O)CCCCCCCCC(=O)N[C@H](C(=O)N2C[C@H](O)C[C@H]2C(=O)NCc2ccc(-c3scnc3C)cc2)C(C)(C)C)CC1 [SIAIS074025, (2S,4R)-1-((S)-2-(10-(4-(4-((5-chloro-4-((2-(isopropylsulfonyl)phenyl)amino)pyrimidin-2-yl)amino)-5-isopropoxy-2-methylphenyl)piperidin-1-yl)-10-oxodecanamido)-3,3-dimethylbutanoyl)-4-hydroxy-N-(4-(4-methylthiazol-5-yl)benzyl)pyrrolidine-2-carboxamide] |  |
| 15 nM | 10 to 100 nM | Cc1cc(Nc2ncc(Cl)c(Nc3ccccc3S(=O)(=O)C(C)C)n2)c(OC(C)C)cc1C1CCN(C(=O)CCOCCOCCNc2cccc3c2C(=O)N(C2CCC(=O)NC2=O)C3=O)CC1 (centres unmarked) [SIAIS151023, 4-((2-(2-(3-(4-(4-((5-chloro-4-((2-(isopropylsulfonyl)phenyl)amino)pyrimidin-2-yl)amino)-5-isopropoxy-2-methylphenyl)piperidin-1-yl)-3-oxopropoxy)ethoxy)ethyl)amino)-2-(2,6-dioxopiperidin-3-yl)isoindoline-1,3-dione] | IC50 ([1]; CTG (Cell Titer Glo)): 76 nM |
| 23 nM | 10 to 50 nM | Cc1cc(Nc2ncc(Cl)c(Nc3ccccc3S(=O)(=O)C(C)C)n2)c(OC(C)C)cc1C1CCN(C(=O)CCOCCOCCOCCOCCOCCNc2cccc3c2C(=O)N(C2CCC(=O)NC2=O)C3=O)CC1 (centres unmarked) [SIAIS151029, 4-((18-(4-(4-((5-chloro-4-((2-(isopropylsulfonyl)phenyl)amino)pyrimidin-2-yl)amino)-5-isopropoxy-2-methylphenyl)piperidin-1-yl)-18-oxo-3,6,9,12,15-pentaoxaoctadecyl)amino)-2-(2,6-dioxopiperidin-3-yl)isoindoline-1,3-dione] | IC50 ([1]; CTG (Cell Titer Glo)): 95 nM |
| 393 nM |  | Cc1cc(Nc2ncc(Cl)c(Nc3ccccc3S(=O)(=O)C(C)C)n2)c(OC(C)C)cc1C1CCN(C(=O)CCOCCOCCC(=O)N[C@H](C(=O)N2C[C@H](O)C[C@H]2C(=O)NCc2ccc(-c3scnc3C)cc2)C(C)(C)C)CC1 [SIAIS151038, (2S,4R)-1-((S)-2-(3-(2-(3-(4-(4-((5-chloro-4-((2-(isopropylsulfonyl)phenyl)amino)pyrimidin-2-yl)amino)-5-isopropoxy-2-methylphenyl)piperidin-1-yl)-3-oxopropoxy)ethoxy)propanamido)-3,3-dimethylbutanoyl)-4-hydroxy-N-(4-(4-methylthiazol-5-yl)benzyl)pyrrolidine-2-carboxamide] |  |
| 441 nM |  | Cc1cc(Nc2ncc(Cl)c(Nc3ccccc3S(=O)(=O)C(C)C)n2)c(OC(C)C)cc1C1CCN(C(=O)CCOCCOCCOCCC(=O)N[C@H](C(=O)N2C[C@H](O)C[C@H]2C(=O)NCc2ccc(-c3scnc3C)cc2)C(C)(C)C)CC1 [SIAIS151039, (2S,4R)-1-((S)-2-(tert-butyl)-16-(4-(4-((5-chloro-4-((2-(isopropylsulfonyl)phenyl)amino)pyrimidin-2-yl)amino)-5-isopropoxy-2-methylphenyl)piperidin-1-yl)-4,16-dioxo-7,10,13-trioxa-3-azahexadecanoyl)-4-hydroxy-N-(4-(4-methylthiazol-5-yl)benzyl)pyrrolidine-2-carboxamide] |  |
| 141 nM |  | Cc1cc(Nc2ncc(Cl)c(Nc3ccccc3S(=O)(=O)C(C)C)n2)c(OC(C)C)cc1C1CCN(C(=O)CCOCCOCCOCCOCCC(=O)N[C@H](C(=O)N2C[C@H](O)C[C@H]2C(=O)NCc2ccc(-c3scnc3C)cc2)C(C)(C)C)CC1 [SIAIS151040, (2S,4R)-1-((S)-2-(tert-butyl)-19-(4-(4-((5-chloro-4-((2-(isopropylsulfonyl)phenyl)amino)pyrimidin-2-yl)amino)-5-isopropoxy-2-methylphenyl)piperidin-1-yl)-4,19-dioxo-7,10,13,16-tetraoxa-3-azanonadecanoyl)-4-hydroxy-N-(4-(4-methylthiazol-5-yl)benzyl)pyrrolidine-2-carboxamide] |  |
| 332 nM |  | Cc1cc(Nc2ncc(Cl)c(Nc3ccccc3S(=O)(=O)C(C)C)n2)c(OC(C)C)cc1C1CCN(C(=O)CCOCCOCCOCCOCCOCCC(=O)N[C@H](C(=O)N2C[C@H](O)C[C@H]2C(=O)NCc2ccc(-c3scnc3C)cc2)C(C)(C)C)CC1 [SIAIS151041, (2S,4R)-1-((S)-2-(tert-butyl)-22-(4-(4-((5-chloro-4-((2-(isopropylsulfonyl)phenyl)amino)pyrimidin-2-yl)amino)-5-isopropoxy-2-methylphenyl)piperidin-1-yl)-4,22-dioxo-7,10,13,16,19-pentaoxa-3-azadocosanoyl)-4-hydroxy-N-(4-(4-methylthiazol-5-yl)benzyl)pyrrolidine-2-carboxamide] |  |
| 153 nM |  | Cc1cc(Nc2ncc(Cl)c(Nc3ccccc3S(=O)(=O)C(C)C)n2)c(OC(C)C)cc1C1CCN(C(=O)COCCOCC(=O)N[C@H](C(=O)N2C[C@H](O)C[C@H]2C(=O)NCc2ccc(-c3scnc3C)cc2)C(C)(C)C)CC1 [SIAIS151042, (2S,4R)-1-((S)-2-(2-(2-(2-(4-(4-((5-chloro-4-((2-(isopropylsulfonyl)phenyl)amino)pyrimidin-2-yl)amino)-5-isopropoxy-2-methylphenyl)piperidin-1-yl)-2-oxoethoxy)ethoxy)acetamido)-3,3-dimethylbutanoyl)-4-hydroxy-N-(4-(4-methylthiazol-5-yl)benzyl)pyrrolidine-2-carboxamide] |  |
| 156 nM |  | Cc1cc(Nc2ncc(Cl)c(Nc3ccccc3S(=O)(=O)C(C)C)n2)c(OC(C)C)cc1C1CCN(C(=O)CCCCCNc2cccc3c2C(=O)N(C2CCC(=O)NC2=O)C3=O)CC1 (centres unmarked) [SIAIS151043, 4-((6-(4-(4-((5-chloro-4-((2-(isopropylsulfonyl)phenyl)amino)pyrimidin-2-yl)amino)-5-isopropoxy-2-methylphenyl)piperidin-1-yl)-6-oxohexyl)amino)-2-(2,6-dioxopiperidin-3-yl)isoindoline-1,3-dione] |  |
